What was measured:
HeLa cells = test: Live/dead cell viability assay (ethidium homodimer-1) in HeLa cells; type: cell-based; settings: 6 hours
Protocol: Cell viability was quantified using the live/dead viability/cytotoxicity assay standard protocol (Invitrogen). Maximum cell death was quantified by incubating cells for 10 min with 0.1% Triton-X, followed by incubation with 0.4 μM ethidium homodimer-1 for an additional 10 min. Fluorescence was measured using a GloMax Discover multiplate reader (Promega).
Supplement Figure 3: Effect of shortlisted compounds on cell viability
(§1) HeLa cells transduced with TEAD-NLUC reporter were treated with indicated compounds at 100 µM for 6 hours (n=3). Cell viability was quantified by staining with 0.4 µM ethidium homodimer-1 and ethidium homodimer-1 uptake quantified by measuring fluorescence at 645 nm using a Glomax Discover plate reader.
(1 picture or pasted object on this page, not shown here)
as §1, with “Supplement Figure 6: Effect of CPD3, CPD3.1, CPD3.2 and CPD 3.3 on cell viability HeLa” for “HeLa”, “concentrations of CPD3, CPD3.1, CPD3.2 and CPD 3.3” for “compounds at 100 µM”, “plate” for “plate reader.”

[1] = system: TEAD-dependent transcriptional activity; test: 8xTEAD secreted nanoluciferase (TEAD-NLUC) reporter assay in HeLa cells; type: cell-based, human; settings: HeLa, indicated concentrations, 6 h
Source text: The shortlisted sets of 16 compounds were first assayed for their ability to inhibit TEAD-dependent transcriptional activity in HeLa cells that had been transduced with a recombinant lentiviral vector expressing secreted bioluminescent nanoluciferase (NLUC) reporter gene enzyme, which is expressed under the control of a promoter region containing eight TEAD DNA-binding elements (TEAD-NLUC).
Compounds were initially screened for ability to inhibit TEAD-dependent transcriptional activity in HeLa cells transduced with a lentiviral vector expressing secreted nanoluciferase under the control of multimerized TEAD consensus elements (5′-[…]-3′). 8xTEAD NanoLuc was generated by cloning the 8xTEAD promoter from the 8xTEAD-Luc plasmid (Addgene #34615) into the pENTR gateway entry vector (Promega). This was then recombined into pLNT-sec-Nluc-2A-eGFP destination vector (supplied by Tristan McKay; University of Manchester). Lentiviruses were generated by Viafect-mediated co-transfection of pLNT8x-TEAD-sec-Nluc-2A-eGFP, Δ8.9, and VSV-G vectors into HEK293T cells (ATCC), and lentiviral-containing culture supernatants were used to infect HeLa cells in the presence of 6 μg/mL polybrene. For compound screening, 8xTEAD NanoLuc-transduced HeLa cells were seeded at 2 × 10^4 cells/well in 96-well plates. After 48 h, the cells were washed in PBS and incubated with test compounds at the indicated concentrations for 2 h. The cells were washed again in PBS and incubated with the compound for a further 4 h. Conditioned culture medium (50 μL) was assayed for secreted nanoluciferase activity using NanoGlo activity assays kit (Promega) and a Glomax Discover luminometer.

[2] = indicated concentrations, HeLa (Supplement Figure 6)

Compound	effect on cell viability (HeLa cells; [2])	effect on TEAD-NLUC activity [1]	effect on cell viability (HeLa cells; 100 µM, HeLa TEAD-NLUC cells)
OCC(O)CN1CCNCC1 (centres unmarked) [CPD3.2]	Neither CPD3.2 nor CPD3.3 had any effect	Neither CPD3.2 nor CPD3.3 had any effect	
O=C(O)c1ccco1 [CPD3.3]	Neither CPD3.2 nor CPD3.3 had any effect	Neither CPD3.2 nor CPD3.3 had any effect	
O=C(NCCn1ncc2c(N3CCN(c4ncccn4)CC3)ncnc21)C12CC3CC(CC(C3)C1)C2 [CPD8]			without significantly affecting cell viability

Reference: publication PMC6701825, “Antiproliferative and Antimigratory Effects of a Novel YAP–TEAD Interaction Inhibitor Identified Using in Silico Molecular Docking” (Journal of Medicinal Chemistry, 2019)
